Data reported in patent US20120196899A1, “METHODS AND PRODUCTS FOR TREATING INFLAMMATION” (Rock Creek Pharmaceuticals, Inc., priority 2010, published 2012).
Like-named read-outs stand apart in the source and are kept apart here.

How the values were obtained:
nAChR α3/β4 [1] = biological target: T1, nAChR α3/β4 (Homo sapiens, UniProt P30926+P32297); conditions: with 10 μM Ach (= 0%), 10 μM Ach + 1 μM epibatidine = 100%
Procedure: (§1) HEK293 or CHO cells were transiently or stably transfected with the appropriate human ion channel cDNAs. Stable transfectants were selected by coexpression with the antibiotic-resistance gene(s) incorporated into the expression plasmid(s). Selection pressure was maintained by including selection antibiotics in the culture medium. HEK293 cells were cultured in Dulbecco's Modified Eagle Medium/Nutrient Mixture F-12 (D-MEM/F-12) supplemented with 10% fetal bovine serum, 100 U/mL penicillin G sodium, 100 g/mL streptomycin sulfate and appropriate selection antibiotics. CHO cells were cultured in Ham's F-12 supplemented with 10% fetal bovine serum, 100 U/mL penicillin G sodium, 100 g/mL streptomycin sulfate and appropriate selection antibiotics.
(§2) For FLIPR TETRA™ assay, cells were plated in 384-well black wall, flat clear bottom microtiter plates (Type: BD Biocoat Poly-D-Lysine Multiwell Cell Culture Plate) at 20,000 to 30,000 cells per well (384-well plate). Cells were incubated at 37° C. overnight or until the cells reached a sufficient density in the wells (near confluent monolayer) to use in fluorescence assays. For α4β2 assay, cells were incubated at 27° C. for at least 7 hours before use.
(§3) Experiments were performed with either the FLIPR calcium sensitive dye kit (Fluo-8, ABDbioquest, for nAChR α3/β4 and nAChR α7) or FLIPR membrane potential kit (Molecular Devices, for nAChR α4/β2) according to the manufacturer's instructions. Briefly, cells were incubated with 201 dye for 30 min at 37° C. After dye loading period, for the agonist assay, 5 μl of the test, vehicle, or control articles at concentration of 5 times of final concentration were applied to the cells without stimulation. For the positive allosteric modulation (PAM) and antagonist assay, after test article application, the cells were stimulated with either low dose (for PAM) or high dose (for antagonist) of Ach.
The signal elicited in the presence of the positive control agonist and allosteric modulator (10 μM Ach+1 μM epibatidine) was set to 100% and the signal from the agonist control (10 μM Ach) was set to 0%.

nAChR α3/β4 [2] = biological target: T1, nAChR α3/β4; experiment: nAChR α3/β4 channel agonist assay (FLIPR, Fluo-8 calcium); conditions: 30 μM Ach = 100%, HBPS = 0%
Procedure: The following three (3) channels were evaluated: • 1. nAChR α3/β4 (encoded by the human CHRNA3 and CHRNB4 gene and stably expressed in CHO cells); • 2. nAChR α4/β2 (CHRNA4 and CHRNB2 gene and transiently expressed in HEK293 cells); and • 3. nAChR α7 (encoded by the human nicotinic α7 gene coexpressed in CHO cells with the chaperone RIC-3 encoded by the human RIC3 gene).
The ability of each test article to act as an agonist, a positive allosteric modulator or antagonist of three nAChR receptor channels was evaluated in the presence of 0.1 atropine. Both test articles were evaluated for responses on each nAChR channel at eight (8) concentrations: 0.3, 1, 3, 10, 30, 100, 300, and 1000 μM (n=4 for each concentration).
as §1, §2, §3
Concentration-response data was fitted to a Hill equation of the following form:
where Base is the response at low concentrations of test article, Max is the maximum response at high concentrations, xhalf is the EC50 or IC50, the concentration of test article producing either half-maximal activation or inhibition, and rate is the Hill coefficient. Nonlinear least squares fits were made assuming a simple one-to-one binding model.
The ability of both test articles to act as an agonist of nAChR carried out in the absence of the positive control agonist. The signal elicited in the presence of the positive control agonist, 30 μM acetylcholine (Ach) was set to 100% and the signal from the vehicle control, HEPES-buffered physiological saline (HBPS) solution was set to 0%.

nAChR α7 = biological target: T2, nAChR α7 (Homo sapiens, UniProt P36544); experiment: nAChR α7 channel agonist assay (FLIPR, with PNU-120596); type: cell-based; conditions: in presence of PNU-120596, 30 μM Ach + 10 μM PNU-120596 = 100%, HBPS = 0%
T2 construct: host or cells: CHO cells
Procedure: Therefore, the assay of agonist activity for either Ach or for the test articles was conducted in the presence of the positive allosteric modulator.

T1 sequence (P32297 32-505): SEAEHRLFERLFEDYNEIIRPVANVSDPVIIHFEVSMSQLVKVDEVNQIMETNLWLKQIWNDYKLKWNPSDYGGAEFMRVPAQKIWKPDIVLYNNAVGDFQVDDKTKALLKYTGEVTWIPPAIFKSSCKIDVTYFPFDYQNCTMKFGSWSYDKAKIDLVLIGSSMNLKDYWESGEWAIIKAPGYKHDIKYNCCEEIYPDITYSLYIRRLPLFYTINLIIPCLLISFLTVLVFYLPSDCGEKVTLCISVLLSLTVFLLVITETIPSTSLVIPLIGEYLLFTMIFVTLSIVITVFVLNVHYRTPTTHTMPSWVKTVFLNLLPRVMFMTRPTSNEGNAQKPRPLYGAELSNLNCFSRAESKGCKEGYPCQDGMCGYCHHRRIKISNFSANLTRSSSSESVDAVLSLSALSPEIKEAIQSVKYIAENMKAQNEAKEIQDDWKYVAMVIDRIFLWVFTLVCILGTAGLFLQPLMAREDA
T1 sequence (P30926 22-498): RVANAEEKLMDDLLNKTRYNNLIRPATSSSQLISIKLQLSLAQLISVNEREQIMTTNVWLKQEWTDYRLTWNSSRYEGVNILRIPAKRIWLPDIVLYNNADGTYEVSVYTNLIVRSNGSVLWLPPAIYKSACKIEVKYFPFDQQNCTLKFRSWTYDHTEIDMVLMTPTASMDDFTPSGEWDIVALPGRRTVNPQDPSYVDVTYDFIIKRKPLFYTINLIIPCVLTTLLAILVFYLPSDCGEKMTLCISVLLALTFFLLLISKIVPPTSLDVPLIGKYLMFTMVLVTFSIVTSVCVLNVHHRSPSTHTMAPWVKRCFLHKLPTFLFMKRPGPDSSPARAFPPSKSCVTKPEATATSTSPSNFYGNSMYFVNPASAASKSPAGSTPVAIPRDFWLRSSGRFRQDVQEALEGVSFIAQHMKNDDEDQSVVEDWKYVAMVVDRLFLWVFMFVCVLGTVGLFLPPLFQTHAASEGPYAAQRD
T2 sequence (P36544 23-502): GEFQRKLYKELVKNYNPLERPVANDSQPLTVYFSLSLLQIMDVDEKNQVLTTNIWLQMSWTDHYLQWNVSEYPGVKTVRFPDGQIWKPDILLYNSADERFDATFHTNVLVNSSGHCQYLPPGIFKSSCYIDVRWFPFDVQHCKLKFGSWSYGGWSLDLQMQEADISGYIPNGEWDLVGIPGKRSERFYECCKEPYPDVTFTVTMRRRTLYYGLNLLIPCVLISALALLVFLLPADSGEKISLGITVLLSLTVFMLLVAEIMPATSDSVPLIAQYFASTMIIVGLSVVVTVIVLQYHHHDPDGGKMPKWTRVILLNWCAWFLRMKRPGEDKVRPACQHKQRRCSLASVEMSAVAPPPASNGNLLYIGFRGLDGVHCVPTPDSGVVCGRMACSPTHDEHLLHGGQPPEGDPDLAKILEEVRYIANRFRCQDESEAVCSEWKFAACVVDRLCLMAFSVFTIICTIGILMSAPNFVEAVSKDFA

C1=CCC(c2cccnc2)NC1 (racemic) [Anatabine (racemate)]
Normalized % Potentiation (nAChR α3/β4 [1]; test conc 0.3 μM): −1.98% | Normalized % Potentiation (nAChR α3/β4 [1]; test conc 1 μM): −4.08% | Normalized % Potentiation (nAChR α3/β4 [1]; test conc 3 μM): −2.88% | Normalized % Potentiation (nAChR α3/β4 [1]; test conc 10 μM): −3.20% | Normalized % Potentiation (nAChR α3/β4 [1]; test conc 30 μM): −8.50% | Normalized % Potentiation (nAChR α3/β4 [1]; test conc 100 μM): −9.46% | Normalized % Potentiation (nAChR α3/β4 [1]; test conc 300 μM): −9.38% | Normalized % Potentiation (nAChR α3/β4 [1]; test conc 1000 μM): −9.17% | Normalized % Activation (nAChR α3/β4 [2]; test conc 0.3 μM): 1.32% | Normalized % Activation (nAChR α3/β4 [2]; test conc 1 μM): −0.01% | Normalized % Activation (nAChR α3/β4 [2]; test conc 3 μM): −1.53% | Normalized % Activation (nAChR α3/β4 [2]; test conc 10 μM): −2.73% | Normalized % Activation (nAChR α3/β4 [2]; test conc 30 μM): 4.93% | Normalized % Activation (nAChR α3/β4 [2]; test conc 100 μM): 10.44% | Normalized % Activation (nAChR α3/β4 [2]; test conc 300 μM): 16.97% | Normalized % Activation (nAChR α7; test conc 0.3 μM): −1.81% | Normalized % Activation (nAChR α7; test conc 1 μM): 0.34% | Normalized % Activation (nAChR α7; test conc 3 μM): 0.78% | Normalized % Activation (nAChR α7; test conc 10 μM): 1.65% | Normalized % Activation (nAChR α7; test conc 30 μM): 2.27% | Normalized % Activation (nAChR α7; test conc 100 μM): 5.69% | Normalized % Activation (nAChR α7; test conc 300 μM): 14.45% | Normalized % Activation (nAChR α7; test conc 1000 μM): 60.41%
